“Also recorded” adds a separate entry of the source.
Legend:
[1] = test system: Human primary dermal fibroblasts (HDFa); assay: Intracellular NAD measurement in human primary dermal fibroblasts; assay type: cell-based; conditions: different concentrations, 3 hrs, absorbance at 405 nm
Method: Human primary dermal fibroblasts derived from adult human skins (HDFa, Life technologies, Grand Island, N.Y., Passage 2-4) were grown in Medium 106 (Life Technologies) supplemented with Low Serum Growth Supplement (LSGS) (Life Technologies) and seeded in 12-well plates with density at 2×10^5 cells per well and 2 ml of culture medium in each well.
Stock solution of dihydronicotinamide riboside (NRH, GSK3008320A, GSK, RTP, NC) was prepared in ethanol at 100 mM (25.6 mg/ml) and stored at −20° C. Cells were treated with different concentrations of NRH for 3 hrs, washed twice with PBS containing 5 mM EDTA, and then subject to Nicotinamide adenine dinucleotide (NAD) measurement. In brief, acetonitrile (ACN) lysis buffer (Ammonium Acetate (50 mM) and 90% acetonitrile) was added to each well (200 μl/well) to lyse the cells at RT for 5-10 mins by gently rotating on a culture plate shaker at a low speed. […] At the end of incubation, the supernatant (200 μl) of the reaction solution from each well was transferred to each well of a 96-well plate and absorbance was read twice in the 96-well plate at 405 nm using a plate reader (Spectra Maxplus, Molecular Devices, Sunnyvale, Calif.). […]

[2] = test system: Human dermal fibroblasts; assay: UVA-induced gene expression in dermal fibroblasts (QPCR); assay type: cell-based; conditions: NRH 200 μM for 5 days, UVA 5 or 7.5 J/cm^2
Method: Human dermal fibroblasts were grown in regular culture media as described in example 1 and seeded in 12-well plates at 2×10^5 cells per well for overnight. Before UVA exposure, culture media were removed and PBS (500 μl) was added to each well. Cells were treated with NRH at 200 μM in culture media for 5 days, and only exposed to UVA at 5 J/cm^2 or 7.5 J/cm^2 every other day on day 0 and day 3. The Newport DS-101103 UV Solar Simulator with UV-A-F filter (Sol-UV-A-F) (Newport Corporate) was used as the UVA emitter. Measurement of the irradiation was taken using an ILT-1400-A radiometer/photometer with a UVA probe (SSL001A, international light technologies, Inc.). After UVA exposure, PBS was removed from each well and media with NRH were added to cells. Cells were harvested for RNA isolation after 5 days treatment.

[3] = test system: Reconstructed human epidermis (EpiDerm, EPI-200); assay: UVB-induced inflammation mediators in reconstructed epidermal equivalents; assay type: cell-based; conditions: topical 1 hr pre-treatment, NRH 0.1% or niacinamide 3%; UVB 150 mJ/cm^2; media 6 hr post irradiation
From the text: Solar Ultraviolet (UV) light exposure on skin causes photoaging, sunburn, DNA damages and carcinogenesis. UV radiation (UVR) also results in inflammation, which can be measured in vitro by pro-inflammatory mediators, e.g., TNF-α, IL-8. The in vitro reconstructed human epidermis (RHE) model is used to evaluate the anti-inflammatory effect of NRH.
Reconstructed human epidermis (EpiDerm, EPI-200, made of normal human epidermal keratinocytes, MatTek, Ashland, Mass.), were placed into media (EPI-100-ASY, 1.0 ml/well of 6-well plates) and incubated overnight at 37° C./5% CO2. The media was replenished with fresh culture media prior to study. NRH at 0.1% and niacinamide at 3% in vehicle (50% H2O/35% ethanol/15% propylene glycol, v/v/v) were applied topically at 6 μl and then gently spread onto the skin equivalents (˜20 rotations) using the rubber side of a plunger of 1 ml syringe. Vehicle was served as an untreated control. After 1 hr pre-treatment with NRH, niacinamide, or vehicle control, the EpiDerm tissues were transferred to a sterile 6-well plate containing 1 ml of DPBS per well and then exposed to UVB at 150 mJ/cm^2. The Newport Solar Simulator System (Power unit 69920, and Lamp 91192-1000, Newport Corporate, Irvine, Calif.) was used as the UVB emitter to achieve a UVB irradiation of 150 mJ/cm^2. Measurement of the irradiation was taken using an ILT-1400 Handheld, Portable Radiometer/Photometer (International Light Technologies, Inc., Peabody, Mass.) with a UVB detector (SEL240/T2ACT5, 235-307 nm, International Light Technologies, Inc.). After UVB irradiation, EpiDerm tissues were transferred back to the 6-well plate containing media and incubated at 37° C./5% CO2 for 6 hours. At the end of the incubation (6 hr post UVB irradiation), culture media were collected for the measurement of IL-8, and TNF-α concentration by MagPix (Millipore, HCYTOMAG-60K).

[4] = Gravimetric Vapor Sorption (GVS); assay type: physicochemical
Procedure, shortened: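 Samples dried under nitrogen 5 h at 25 °C, then sorption ramp from 5% to 95% or 90% RH and desorption back to 5% or 10% RH, all at 25 °C. Each RH step held 4 h; mass change by microbalance.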

- GVS weight gain ([4]; 90% RH, 25° C., after drying): greater than 60 % w/w
- hygroscopicity by GVS ([4]; GVS isotherm 25° C.): hygroscopic
SMILES: NC(=O)C1=CN([C@@H]2O[C@H](CO)[C@@H](O)[C@H]2O)C=CC1 [NRH, dihydronicotinamide riboside]
- NAD level [1]: dose-dependently increases NAD; also recorded: dose-dependently increases NAD^+
- COX-2 expression compared to UVA alone [2]: reduced; also recorded: decreases
- NQO-1 expression compared to UVA alone [2]: increases
- NRF-2 expression compared to UVA alone [2]: increases
- UVB-induced IL-8 [3]: inhibited; also recorded: reduces
- UVB-induced TNF-α [3]: inhibited; also recorded: reduces

— US10485814B2, “Nicotinamide riboside analogs and pharmaceutical compositions and uses thereof” (GlaxoSmithKline Intellectual Property (No. 2) Limited, priority 2014, dated 2019)
